Assay results from PubChem BioAssay AID1963428 (Molecular Pharmacology Branch, DTP, NCI, 2024).

Tested on: 171881-019-R-J1-PDC complex spheroid growth, % test/control
Experiment: Anticancer human tumor 171881-019-R-J1-PDC patient-derived invasive breast carcinoma cell line growth inhibition [Asc]
Conditions: for IC50: curve of first compound; for viability, T/C: stronger effect = lower value
Procedure: Multicellular complex tumor spheroid response to apoptosis pathway targeting inhibitors Alrizomadlin, Pelcitoclax, and Dasminapant in combination with a variety of drugs and investigational agents in selected tumor cell lines
The MDM2 inhibitor alrizomadlin, the Bcl-2/Bcl-xL inhibitor pelcitoclax, and the IAPs inhibitor dasminapant were evaluated both individually and in combination with standard of care and investigational anticancer small molecules within a complex spheroid model of solid tumors. . Complex spheroids include a stromal component modeled by human endothelial cells (HUVEC) and fibroblasts modeled by human mesenchymal stem cells (MSCs). The concentration ranges selected for each drug and investigational agent were based upon clinically achievable concentrations if the clinical Cmax of the agent was known.
Compounds. The drugs and investigational agents: alrizomadlin (APG-115; NSC831270), pelcitoclax (APG-1252; NSC835773), dasminapant (APG-1387;NSC834197), TAK-243 (NSC785004), copanlisib (NSC809693), olaparib (NSC753686), talazoparib (NSC767125), cobimetinib (NSC 768068), eltanexor (KPT-8602, NSC 794443), abemaciclib (NSC 768073), sotorasib (NSC818433), adagrasib (NSC 831453), MRTX-1133 (NSC 836407), Iadademestat (ORY1001, NSC 806812), and RMC-4630 (NSC839698), were obtained from the NCI Developmental Therapeutics Program Chemical Repository. The FDA-approved anticancer drug set is available from the Developmental Therapeutics Program at https://dtp.cancer.gov/organization/dscb/obtaining/available plates.htm. […] The stock solutions were prepared in dimethyl sulfoxide (DMSO, Sigma-Aldrich, St. Louis, MO, cat. D2650) at 800-fold the tested concentration and stored at -70 degrees C prior to their use. All drugs and investigational agents were tested over a range starting from a high concentration at or near the clinical Cmax and decreasing in half-log increments. If the clinical Cmax for an agent had not been determined, the highest concentration tested was 10 microM.
The patient-derived cancer (PDC) cell lines include five colon adenocarcinomas: 186277-243-T-J2-PDC, 616215-338-R-J1-PDC, 439559-082-T-J2-PDC, 463943-066-T-J2-PDC, and 519858-162-T-J1-PDC; three pancreatic carcinomas: 323965-272-R-J2-PDC, 521955-158-R6-J3-PDC, and 521955-158-R2-J5-PDC; two uterine sarcomas: 327498-152-R-J2-PDC and 993429-296-R-J1-PDC; two rhabdomyosarcomas: 755483-174-R-J1-PDC and 772245-204-R-J1-PDC; two soft tissue sarcomas: 126254-015-R-J1-PDC and 494315-158-R-J1-PDC; two malignant fibrous histiocytomas: 317291-083-R-J1-PDC and 596521-263-R-J1-PDC; two breast carcinomas: 171881-019-R-J1-PDC and 885512-296-R-J2-PDC; and one ovarian carcinoma: 6556581-035-R-J-PDC were obtained from the NCI PDMR, (https://pdmr.cancer.gov). The established cell lines HSSY-2 synovial sarcoma (RRID:CVCL 8719), SYO-1 synovial sarcoma (RRID:CVCL_7146), MPNST malignant peripheral neural sheath tumor were obtained from the Sloan Kettering Institute. The following established cell lines were purchased from the American Type Culture Collection (ATCC, Manassas, VA), Sor the received from the NCI repository:, PANC-1 pancreatic carcinoma (CRL-1469, RRID:CVCL_0480), OVCAR-5 ovarian carcinoma (RRID:CVCL_1628), OVCAR-8 ovarian carcinoma (RRID:CVCL_1629), , MCF-7 breast carcinoma (CRL-12584, RRID:CVCL_0031), MDA-MB-231 breast carcinoma (CRL-12532, RRID:CVCL_0062), NCI-H1876 small cell lung carcinoma (CRL-5902, RRID:CVCL_1503), NCI-H510A small cell lung carcinoma (HTB-184, RRID:CVCL_1565), NCI-H1417 (CRL-5869, RRID:CVCL_1469), and NCI-H196 small cell lung carcinoma (CRL-5823, RRID:CVCL_1509). Dr. Peter Houghton (Greehey Children's Cancer Research Institute, University of Texas Health Science Center, San Antonio, TX) provided Rh-18 rhabdomyosarcoma (RRID:CVCL_1659). Pooled donor human umbilical vein endothelial cells (HUVEC, Lonza, cat. CC-2519) and human mesenchymal stem cells (hMSC, Lonza, cat. PT-2501) were purchased from Lonza (Walkersville, MD).
Cell Culture. […]

[1] = second compound 0.03 µM, first compound 0.00316 µM
[2] = second compound 0.03 µM, first compound 0.01 µM
[3] = second compound 0.03 µM, first compound 0.0316 µM
[4] = second compound 0.03 µM, first compound 0.1 µM
[5] = second compound 0.0949 µM, first compound 0.00316 µM
[6] = second compound 0.0949 µM, first compound 0.01 µM
[7] = second compound 0.0949 µM, first compound 0.0316 µM
[8] = second compound 0.0949 µM, first compound 0.1 µM
[9] = second compound 0.3 µM, first compound 0.00316 µM
[10] = second compound 0.3 µM, first compound 0.01 µM
[11] = second compound 0.3 µM, first compound 0.0316 µM
[12] = second compound 0.3 µM, first compound 0.1 µM
[13] = second compound 0.949 µM, first compound 0.00316 µM
[14] = second compound 0.949 µM, first compound 0.01 µM
[15] = second compound 0.949 µM, first compound 0.0316 µM
[16] = second compound 0.949 µM, first compound 0.1 µM
[17] = second compound 3 µM, first compound 0.00316 µM
[18] = second compound 3 µM, first compound 0.01 µM
[19] = second compound 3 µM, first compound 0.0316 µM
[20] = second compound 3 µM, first compound 0.1 µM
[21] = second compound 0.03 µM, first compound 0.316 µM
[22] = second compound 0.03 µM, first compound 1 µM
[23] = second compound 0.0949 µM, first compound 0.316 µM
[24] = second compound 0.0949 µM, first compound 1 µM
[25] = second compound 0.3 µM, first compound 0.316 µM
[26] = second compound 0.3 µM, first compound 1 µM
[27] = second compound 0.949 µM, first compound 0.316 µM
[28] = second compound 0.949 µM, first compound 1 µM
[29] = second compound 3 µM, first compound 0.316 µM
[30] = second compound 3 µM, first compound 1 µM
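Throughout, for viability, T/C: spheroids exposed to compounds for 7 days.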

Work on `Cn1ncnc1[C@H]1c2n[nH]c(=O)c3cc(F)cc(c23)N[C@@H]1c1ccc(F)cc1` + CCN1C(C(=O)NC23CCC(C(=O)O)(CC2)CC3)C(c2cccc(Cl)c2F)C2(C(=O)Nc3cc(Cl)ccc32)C12CCCCC2 yielded an IC50 (second compound 0.03 µM) greater than 100 nM, an IC50 (second compound 0.0949 µM) greater than 100 nM and an IC50 (second compound 0.3 µM) greater than 100 nM. The IC50 (second compound 0.949 µM) was greater than 100 nM, the IC50 (second compound 3 µM) was greater than 100 nM and the viability, T/C (second compound 0.03 µM, first compound 0.000316 µM) was 93.2%. The viability, T/C (second compound 0.03 µM, first compound 0.001 µM) was 110%, the viability, T/C [1] was 107% and the viability, T/C [2] was 103%. It also gave a viability, T/C [3] of 105%, a viability, T/C [4] of 96.8% and a viability, T/C (second compound 0.0949 µM, first compound 0.000316 µM) of 102%. For the same compound, the viability, T/C (second compound 0.0949 µM, first compound 0.001 µM) was 95.5%, the viability, T/C [5] was 95.8% and the viability, T/C [6] was 111%. The viability, T/C [7] was 104%, the viability, T/C [8] was 114% and the viability, T/C (second compound 0.3 µM, first compound 0.000316 µM) was 99.5%. For the same compound, the viability, T/C (second compound 0.3 µM, first compound 0.001 µM) was 126%, the viability, T/C [9] was 101% and the viability, T/C [10] was 104%. The viability, T/C [11] was 109%, the viability, T/C [12] was 109% and the viability, T/C (second compound 0.949 µM, first compound 0.000316 µM) was 115%. The viability, T/C (second compound 0.949 µM, first compound 0.001 µM) was 115%, the viability, T/C [13] was 120% and the viability, T/C [14] was 108%. It also gave a viability, T/C [15] of 115%, a viability, T/C [16] of 120% and a viability, T/C (second compound 3 µM, first compound 0.000316 µM) of 119%. The viability, T/C (second compound 3 µM, first compound 0.001 µM) was 111%, the viability, T/C [17] was 115% and the viability, T/C [18] was 110%. It also gave a viability, T/C [19] of 110% and a viability, T/C [20] of 114%.

For `O=C(c1cc(Cc2n[nH]c(=O)c3ccccc23)ccc1F)N1CCN(C(=O)C2CC2)CC1` + CCN1C(C(=O)NC23CCC(C(=O)O)(CC2)CC3)C(c2cccc(Cl)c2F)C2(C(=O)Nc3cc(Cl)ccc32)C12CCCCC2, the IC50 (second compound 0.03 µM) was greater than 10000 nM, the IC50 (second compound 0.0949 µM) was greater than 10000 nM and the IC50 (second compound 0.3 µM) was greater than 10000 nM. It also gave an IC50 (second compound 0.949 µM) greater than 10000 nM, an IC50 (second compound 3 µM) greater than 10000 nM and a viability, T/C [3] of 123%. For the same compound, the viability, T/C [4] was 101%, the viability, T/C [21] was 102% and the viability, T/C [22] was 105%. It also gave a viability, T/C (second compound 0.03 µM, first compound 3.16 µM) of 94.5%, a viability, T/C (second compound 0.03 µM, first compound 10 µM) of 103% and a viability, T/C [7] of 113%. For the same compound, the viability, T/C [8] was 92.5%, the viability, T/C [23] was 115% and the viability, T/C [24] was 97.5%. It also gave a viability, T/C (second compound 0.0949 µM, first compound 3.16 µM) of 110%, a viability, T/C (second compound 0.0949 µM, first compound 10 µM) of 113% and a viability, T/C [11] of 102%. The viability, T/C [12] was 116%, the viability, T/C [25] was 117% and the viability, T/C [26] was 95.1%. The viability, T/C (second compound 0.3 µM, first compound 3.16 µM) was 114%, the viability, T/C (second compound 0.3 µM, first compound 10 µM) was 107% and the viability, T/C [15] was 110%. The viability, T/C [16] was 103%, the viability, T/C [27] was 105% and the viability, T/C [28] was 102%. The viability, T/C (second compound 0.949 µM, first compound 3.16 µM) was 103%, the viability, T/C (second compound 0.949 µM, first compound 10 µM) was 108% and the viability, T/C [19] was 108%. The viability, T/C [20] was 121%, the viability, T/C [29] was 101% and the viability, T/C [30] was 94.9%. It also gave a viability, T/C (second compound 3 µM, first compound 3.16 µM) of 113% and a viability, T/C (second compound 3 µM, first compound 10 µM) of 106%.

Compound `O=C(c1ccc(F)c(F)c1Nc1ccc(I)cc1F)N1CC(O)([C@@H]2CCCCN2)C1` + CCN1C(C(=O)NC23CCC(C(=O)O)(CC2)CC3)C(c2cccc(Cl)c2F)C2(C(=O)Nc3cc(Cl)ccc32)C12CCCCC2 has an IC50 (second compound 0.03 µM) of 511 nM, an IC50 (second compound 0.0949 µM) of 660 nM and an IC50 (second compound 0.3 µM) of 581 nM. The IC50 (second compound 0.949 µM) was 455 nM, the IC50 (second compound 3 µM) was 286 nM and the viability, T/C [1] was 102%. It also gave a viability, T/C [2] of 100%, a viability, T/C [3] of 113% and a viability, T/C [4] of 153%. It also gave a viability, T/C [21] of 60.5%, a viability, T/C [22] of 35.2% and a viability, T/C [5] of 91.6%. It also gave a viability, T/C [6] of 91.1%, a viability, T/C [7] of 151% and a viability, T/C [8] of 151%. For the same compound, the viability, T/C [23] was 69.5%, the viability, T/C [24] was 39% and the viability, T/C [9] was 87.6%. It also gave a viability, T/C [10] of 108%, a viability, T/C [11] of 132% and a viability, T/C [12] of 144%. It also gave a viability, T/C [25] of 61.3%, a viability, T/C [26] of 39.9% and a viability, T/C [13] of 96.2%. For the same compound, the viability, T/C [14] was 111%, the viability, T/C [15] was 157% and the viability, T/C [16] was 127%. The viability, T/C [27] was 56%, the viability, T/C [28] was 37% and the viability, T/C [17] was 112%. The viability, T/C [18] was 128%, the viability, T/C [19] was 174% and the viability, T/C [20] was 111%. The viability, T/C [29] was 48.2% and the viability, T/C [30] was 40.1%.
